Where “and” joins values, the source holds several entries; their conditions need not be identical. Equal entries are not always repeated.
Columns and labels:
[1] = test system: susceptible E. colona standard; assay: Determination of resistance level (visual injury), susceptible plants; conditions: 2 X dose, visual 3 wk after treatment
[2] = test system: ECO-R compared to ECO-S after herbicide treatment; assay: RNA-sequencing differential gene expression, ECO-R-T compared to ECO-S-T
Excerpt: (§1) Pure-line generated seed of each accession were germinated in pots containing potting soil within a temperature/light controlled growth chamber set to a 14-hr day length, 33 C day temperature, and 24 C night time to simulate environmental conditions early in the rice growing season. A single plant was maintained in each of the pots and used for the treatments; two pots were used as individual biological replicates. […] Pots for each of the respective treatments were labeled as either ECO-R/S-T for the treated samples and ECO-R/S-N for the non-treated counterpart. To minimize the effect that the sprayer may play in the application, both plants of the ECO-R and ECO-S were treated at the same time. After approximately 30 minutes, allowing for the plants to dry, the treated and non-treated plants of both accessions were moved back into the growth chamber. Precisely 24-hours after application, the aboveground portion of each of the plants were removed and immediately frozen in liquid nitrogen to cease all biological function. Samples were then transferred to RNAlater™-ICE (Invitrogen, Carlsbad CA, USA) for shipment to the Clemson University Genomics Institute (CUGI), in Clemson, South Carolina.
(§2) RNA was extracted from the young leaf tissues of both replications for the ECO-R and ECO-S, T and N samples, at Clemson University. Total RNA was extracted with a kit according to the manufactures instructions. The extracted RNA was treated with DNase (Invitrogen, Calsbad, CA, USA) to remove any DNA contamination prior to further processing. The samples were prepared for sequencing by CUGI. For library preparation, the TruSeq Stranded Total RNA kit (Illumina Inc., San Diego, CA, USA) was used according to the instructions provided by the manufacturer to produce a paired-end library for sequencing. Ribosomal RNA was removed using target-specific oligonucleotides paired with rRNA removal beads, removing all cytoplasmic and mitochondrial rRNA that may result in poor quality results. RNA was fragmented and reverse transcribed to cDNA using random primers, followed by a second strand cDNA synthesis. Each fragment is then ligated with an additional ‘A’ and an adapter for sequencing. The PCR enriched product is then used to create the final cDNA library. All samples were sequenced on an Illumina Hiseq 2500 platform housed in the Holdings Cancer Center at the Medical University of South Carolina, Charleston, SC, USA. Samples, regardless of treatments or replication were ran across three lanes to reduce sequencing errors from the equipment. The resulting data were processed by CUGI.
(§3) A de novo transcriptome was assembled from the treatments described for this experiment as well as several treatments, which included herbicides profiled in ECO-R. The treatments were applied to both ECO-R and ECO-S samples with two replications as described previously. In total, 20 individual plants, from both the ECO-R and ECO-S accessions, as well as T and NT samples, were used for the assembly. The transcriptome was assembled using the Trinity RNA-Seq pipeline (Broad Institute, Cambridge, MA, USA). Raw data were assessed for quality using FastQC (Babraham Institute, Cambridge, UK) and then processed to remove adapter sequences and low quality bases using a sliding window method. The processed data were then rerun using FastQC to ensure high quality reads. Using the TrinityRNASeq 2.2.0 software, the samples were normalized, by replication, using a coverage size of 100 and kmer of 32. The normalized reads were then assembled as transcripts and genes using Trinity with the stranded library set as the default.

[3] = test system: resistant Echinochloa species; assay: Determination of resistance level (visual injury), resistant accessions; format: in vivo, E. colona and E. crus-galli; conditions: visual 3 wk after treatment
Excerpt: The experiment was repeated once.

[4] = test system: susceptible E. colona (ECO-S); assay: RNA-sequencing differential gene expression, herbicide-treated vs nontreated ECO-S; conditions: ECO-S-T vs ECO-S-N, 24 h
Excerpt: as §1, §2, §3

In the case of CCC(=O)Nc1ccc(Cl)c(Cl)c1 [propanil], the susceptible plants killed [1] is reported as 100%, the “ABA 8′-hydroxylase 1 transcripts fold change” value ([2]; ECO-R-T vs ECO-S-T, 24 h) is reported as under −6.5 fold and the “ABA receptor PYL5 fold change” value ([2]; ECO-R-T vs ECO-S-T, 24 h) is reported as −4.8 fold. For the same compound, the “ABA receptor PYL8 fold change” value ([2]; ECO-R-T vs ECO-S-T, 24 h) was −3.7 fold, the “ACC synthase fold change” value ([2]; ECO-R-T vs ECO-S-T, 24 h) was 8.6 fold and the “Beta-glucosidase 22 fold change” value ([2]; ECO-R-T vs ECO-S-T, 24 h) was 5.9 fold. For the same compound, the “CYP71A1 Fold Change” value ([2]; ECO-R-T vs ECO-S-T, 24 h) was 3.6 fold, the “CYP72A15 Fold Change” value ([2]; ECO-R-T vs ECO-S-T, 24 h) was 6.6 fold and 11.3 fold and the “DNA-directed RNA polymerase 1 subunit RPA112 III fold change” value ([2]; ECO-R-T vs ECO-S-T, 24 h) was 10.3 fold. For the same compound, the ERF4 fold change ([2]; ECO-R-T vs ECO-S-T, 24 h) was 4.3 fold, the ERF7 fold change ([2]; ECO-R-T vs ECO-S-T, 24 h) was 8 fold and the ERF11 fold change ([2]; ECO-R-T vs ECO-S-T, 24 h) was 3.4 fold. It also gave a GST1 fold change ([2]; ECO-R-T vs ECO-S-T, 24 h) of 3.9 fold, a GST4 fold change ([2]; ECO-R-T vs ECO-S-T, 24 h) of over 5.3 fold and a GSTU17 fold change ([2]; ECO-R-T vs ECO-S-T, 24 h) of 10.9 fold. The “UGT73D1 fold change” value ([2]; ECO-R-T vs ECO-S-T, 24 h) was 7.3 fold, the “UGT88A1 Fold Change” value ([2]; ECO-R-T vs ECO-S-T, 24 h) was 3.2 fold and the UGT88F3 fold change ([2]; ECO-R-T vs ECO-S-T, 24 h) was 5.9 fold. For the same compound, the ferredoxin-6 fold change ([2]; ECO-R-T vs ECO-S-T, 24 h) was −6.5 fold, the “nitrate reductase fold change” value ([2]; ECO-R-T vs ECO-S-T, 24 h) was under −6 fold and the “nitrate transporters fold change” value ([2]; ECO-R-T vs ECO-S-T, 24 h) was under −4 fold. The “polymerase III subunit 2 fold change” value ([2]; ECO-R-T vs ECO-S-T, 24 h) was 10.8 fold, the “trehalose biosynthesis enzymes fold change” value ([2]; ECO-R-T vs ECO-S-T, 24 h) was under −3 fold and the “Phosphoenolpyruvate carboxylase (PEPc) kinase 1 fold change” value ([2]; in vivo) was over 5 fold. For the same compound, the “injury of ECO187” value ([3]; 2 X dose (4480 g ai/ha)) was 97%, the “injury of resistant Echinochloa species” value ([3]; 2 X dose, propanil range excludes ECO187) was 27-57% and the “ABC transporter G family member 5 Fold Change” value [4] was 2.8 fold. For the same compound, the “ABC transporter G family member 42 Fold Change” value [4] was 1.5 fold, the “ACC synthase fold change” value [4] was −2.7 fold and the “CYP71A1 Fold Change” value [4] was 2.9 fold. For the same compound, the “CYP71A21 Fold Change” value [4] was 5.1 fold, the “CYP71D7 Fold Change” value [4] was 5.9 fold and the “CYP94C1 Fold Change” value [4] was 3.7 fold and 5.4 fold and 5.5 fold. The “CYP716B1 Fold Change” value [4] was 3.0 fold, the “GSTU1 Fold Change” value [4] was 2.5 fold and 2.7 fold and the “GSTU6 Fold Change” value [4] was 2.3 fold and 4.1 fold. The “Heparan-alpha-glucosaminide N-acetyltransferase Fold Change” value [4] was 2.5 fold, the “MSR-1 Fold Change” value [4] was 2.1 fold and the MYB44 fold change [4] was over 3 fold. For the same compound, the MYC3 fold change [4] was 3.4 fold, the “Probable glutathione S-transferase Fold Change” value [4] was 1.8 fold and the RGA2 fold change [4] was over 7.5 fold. The RGA3 fold change [4] was 1.7 fold, the “UGT73B4 Fold Change” value [4] was 3.8 fold and 5.7 fold and the “UGT73C1 Fold Change” value [4] was 3.1 fold. The “UGT73C2 Fold Change” value [4] was 3.3 fold, the “UGT74D1 Fold Change” value [4] was 2.2 fold and the “UGT75C1 Fold Change” value [4] was 2.9 fold. The “Uncharacterized acetyltransferase At3g50280 Fold Change” value [4] was 2.5 fold and 3.5 fold, the “multiple ACC oxidase genes fold change” value [4] was −1.8 to −2.2 fold and the “phosphoenolypyruvate carboxylase fold change” value [4] was −2.1 to −3.4 fold. The “pyruvate dehydrogenase fold change” value [4] was −5.6 to −6.2 fold, the “sugar transporter ERD6-like 6 fold change” value [4] was 2.3 fold and the “DNA and RNA polymerase-related transcripts fold change” value ([4]; repressed by as much as) was at most −8.7 fold. For the same compound, the “ACCase and ACCase 2 fold change” value ([4]; repressed up to) was “up to −6.9 fold”.

— patent US20250250582A1, “Plant Cells and Plants Modified to Increase Herbicide Resistance and Stress Tolerance and Methods of Using the Same” (The Board of Trustees of the University of Arkansas, priority 2018, published 2025)
